Measured values taken from patent US8513285B2, “3 or 4-substituted piperidine compounds” (SK Biopharmaceuticals Co., Ltd., priority 2008, dated 2013).

Key:
[1] = molecular target: T1, human recombinant norepinephrine transporter (Homo sapiens, UniProt P23975); assay: Norepinephrine transporter reuptake inhibition assay; assay type: cell-based; settings: 100 nM; MDCK cells with human norepinephrine transporter; [3H]Norepinephrine uptake; read-out: Inhibition % at 100 nM NE reuptake
T1 construct: expressed in transfected cells; host or cells: MDCK
Description: Norepinephrine Transporter Reuptake Inhibition Assay
Norepinephrine transporter reuptake inhibition assay used the method described by Galli A. et al., J Exp Biol., 1995, 198, p 2197˜2212.
MDCK cells with stably expressed human recombinant norepinephrine transporter were plated one day. Test compounds were pre-incubated with cells (2×10^5/ml) in modified Tris-HEPES buffer pH 7.1 for 20 minutes at 25° C. and then they were incubated for additional 10 minutes after 25 nM of [^3H]Norepinephrine was added. A lysate was obtained from solubilized cells and the filtered lysate was counted to determine [^3H]Norepinephrine uptake. Reduction of [^3H]Norepinephrine uptake by 50 percent or more (≧50%) relative to 10 μM desipramine indicates significant inhibitory activity. Compounds were screened at 10, 1, 0.1, 0.01 and 0.001 μM to determine their IC50s.

[2] = molecular target: T2, human serotonin transporter (Homo sapiens, UniProt P31645); assay: Serotonin transporter reuptake inhibition assay; assay type: cell-based; settings: HEK293; 100 nM; HEK-293 cells with human serotonin transporter; [3H]Serotonin uptake; read-out: Inhibition % at 100 nM 5-HT reuptake
T2 construct: expressed in transfected cells; host or cells: HEK-293
Description: Serotonin Transporter Reuptake Inhibition Assay
The method to test the ability of compounds to inhibit transporters from reuptake of serotonin followed Gu H. et al., J Biol. Chem., 1994, 269, p […].
The recombinant HEK-293 cells with human serotonin transporter were plated. Test compounds were pre-incubated with cells (2×10^5/ml) in modified Tris-HEPES buffer pH 7.1 for 20 minutes at 25° C. and then they were incubated for additional 10 minutes after 65 nM of [^3H]Serotonin was added. Bound cells were filtered and counted to determine [^3H]Serotonin uptake. Reduction of [^3H]Serotonin uptake by 50 percent or more (≧50%) relative to 10 μM fluoxetine indicates significant inhibitory activity. Compounds were screened at 10, 1, 0.1, 0.01 and 0.001 μM for IC50s.

[3] = molecular target: T3, human recombinant dopamine transporter (Homo sapiens, UniProt Q01959); assay: Dopamine transporter reuptake inhibition assay; assay type: cell-based; settings: 100 nM; CHO-K1 cells with human dopamine transporter; [3H]Dopamine uptake; read-out: Inhibition % at 100 nM DA reuptake
T3 construct: expressed in transfected cells; host or cells: CHO-K1
Description: Dopamine Transporter Reuptake Inhibition Assay
The assay followed the method modified from Pristupa Z. B. et al., Mol. Pharmacol., 1994, p 125˜135.
CHO-K1 cells with human recombinant dopamine transporter were plated. Test compounds were pre-incubated with cells (4×10^5/ml) in modified Tris-HEPES buffer pH 7.1 for 20 minutes at 25° C. and then they were incubated for additional 10 minutes after 50 nM of [^3H]Dopamine was added. A lysate is obtained from solubilized cells and counted to determine [^3H]Dopamine uptake. Reduction of [^3H]Dopamine uptake by 50 percent or more (≧50%) relative to 10 μM nomifensine indicates significant inhibitory activity. Compounds were tested at 10, 1, 0.1, 0.01 and 0.001 μM for IC50s.

[4] = tested on: mice; assay: Forced swimming test in mice (FST); assay type: in vivo; settings: Mus musculus, 0.5 h, 30ip, 30 min after administration, vs control group, read-out: Reduction % at 30ip (duration of immobility)
Description: Forced Swimming Test in Mice (FST)
The Forced swimming test is an animal model based on the rodent's behavioral repertoire for screening drugs with potential antidepressant activity. As in several other models used for this goal, an uncontrollable stress stimulus produces behavioral changes that are sensitive to antidepressant treatment.
The mice were intraperitoneally treated with the test compound with an injection volume of […]. The group treated with 30% PEG400 served as a control group. Thirty minutes following administration, mice were individually forced to swim in a transparent glass vessel (14 cm high, 11.5 cm in diameter) filled with 10 cm of water at 25° C. The total duration of immobility (second) was measured during the last 4 minutes of a single 6-min test session. Mice were considered immobile when they made no further attempts to escape other than the movements necessary to keep their heads above the water. The potent ability of the compounds was determined as percent value of reduction in the duration of immobility comparing to the control group.

T2 sequence (P31645 whole entry): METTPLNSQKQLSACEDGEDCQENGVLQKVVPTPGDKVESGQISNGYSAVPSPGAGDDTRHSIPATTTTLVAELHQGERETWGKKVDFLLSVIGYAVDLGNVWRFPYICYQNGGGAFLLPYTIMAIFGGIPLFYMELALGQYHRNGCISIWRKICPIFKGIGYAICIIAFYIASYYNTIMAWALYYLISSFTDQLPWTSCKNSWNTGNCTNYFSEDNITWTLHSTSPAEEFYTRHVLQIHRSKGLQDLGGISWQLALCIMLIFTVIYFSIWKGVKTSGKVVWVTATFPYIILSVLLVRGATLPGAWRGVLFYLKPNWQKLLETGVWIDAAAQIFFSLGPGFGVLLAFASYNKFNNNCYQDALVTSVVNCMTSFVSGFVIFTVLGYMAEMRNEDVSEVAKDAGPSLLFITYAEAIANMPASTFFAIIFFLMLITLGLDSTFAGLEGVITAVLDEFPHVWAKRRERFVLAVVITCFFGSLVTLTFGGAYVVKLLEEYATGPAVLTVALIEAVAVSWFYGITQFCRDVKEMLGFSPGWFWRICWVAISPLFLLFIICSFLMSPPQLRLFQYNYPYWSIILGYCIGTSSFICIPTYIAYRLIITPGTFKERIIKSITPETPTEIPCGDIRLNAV
T1 sequence (P23975 whole entry): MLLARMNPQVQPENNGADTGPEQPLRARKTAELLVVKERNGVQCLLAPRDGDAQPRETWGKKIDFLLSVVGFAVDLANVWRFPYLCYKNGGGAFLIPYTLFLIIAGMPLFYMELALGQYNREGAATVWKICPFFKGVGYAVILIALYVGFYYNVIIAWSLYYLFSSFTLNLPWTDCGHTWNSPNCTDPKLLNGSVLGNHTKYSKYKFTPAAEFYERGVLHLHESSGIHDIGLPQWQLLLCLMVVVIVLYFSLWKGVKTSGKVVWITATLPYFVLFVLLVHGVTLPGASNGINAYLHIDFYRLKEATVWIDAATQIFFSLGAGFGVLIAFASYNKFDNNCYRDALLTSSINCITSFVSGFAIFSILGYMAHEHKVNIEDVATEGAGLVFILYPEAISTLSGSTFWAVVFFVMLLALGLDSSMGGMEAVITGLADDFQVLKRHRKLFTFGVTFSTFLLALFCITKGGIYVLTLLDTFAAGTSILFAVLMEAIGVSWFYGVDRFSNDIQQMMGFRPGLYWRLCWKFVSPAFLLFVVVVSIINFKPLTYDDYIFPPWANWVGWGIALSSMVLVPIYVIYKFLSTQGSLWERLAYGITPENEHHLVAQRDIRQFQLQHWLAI
T3 sequence (Q01959 whole entry): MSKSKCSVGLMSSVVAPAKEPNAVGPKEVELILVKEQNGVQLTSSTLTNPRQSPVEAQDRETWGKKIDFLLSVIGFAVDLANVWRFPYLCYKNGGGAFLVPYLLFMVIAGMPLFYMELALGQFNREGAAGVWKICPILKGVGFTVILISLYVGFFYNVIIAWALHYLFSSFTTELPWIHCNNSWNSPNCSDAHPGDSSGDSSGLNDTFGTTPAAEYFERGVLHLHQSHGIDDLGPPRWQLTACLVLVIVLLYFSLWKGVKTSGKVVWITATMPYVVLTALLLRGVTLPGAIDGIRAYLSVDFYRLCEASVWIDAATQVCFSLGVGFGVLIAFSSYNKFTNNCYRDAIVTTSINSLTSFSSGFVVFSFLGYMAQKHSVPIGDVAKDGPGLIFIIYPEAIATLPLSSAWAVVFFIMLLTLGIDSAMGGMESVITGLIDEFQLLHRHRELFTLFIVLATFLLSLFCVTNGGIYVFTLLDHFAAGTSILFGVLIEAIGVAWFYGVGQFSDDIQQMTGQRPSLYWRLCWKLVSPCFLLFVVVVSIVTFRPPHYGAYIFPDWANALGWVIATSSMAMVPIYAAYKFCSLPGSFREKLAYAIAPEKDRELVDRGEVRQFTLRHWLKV

Cc1nnn([C@H](c2ccc3ccccc3c2)[C@H]2CCCNC2)n1 [Example 10, (3S)-3-[(S)-(5-methyl-2H-tetrazol-2-yl)(naphthalen-2-yl)methyl]piperidine]
inhibition at 0.1 µM [1]: 87% | inhibition at 0.1 µM [2]: 93% | inhibition at 0.1 µM [3]: 93%

c1ccc2cc([C@H]([C@H]3CCCNC3)n3nccn3)ccc2c1 [Example 14, (3S)-3-[(S)-naphthalen-2-yl(2H-1,2,3-triazol-2-yl)methyl]piperidine]
inhibition at 0.1 µM [1]: 70% | inhibition at 0.1 µM [2]: 76% | inhibition in vivo at 30 mg/kg [4]: 6.4% | inhibition at 0.1 µM [3]: 52%

COc1ccc2cc([C@H]([C@H]3CCCNC3)n3ncnn3)ccc2c1 [Example 35, (3S)-3-[(S)-(6-methoxynaphthalen-2-yl)(2H-tetrazol-2-yl)methyl]piperidine]
inhibition at 0.1 µM [1]: 72% | inhibition at 0.1 µM [2]: 76% | inhibition in vivo at 30 mg/kg [4]: 32.7% | inhibition at 0.1 µM [3]: 78%

Clc1ccc2cc([C@@H]([C@@H]3CCCNC3)n3ncnn3)ccc2c1 [Example 67, (3R)-3-[(R)-(6-chloronaphthalen-2-yl)(2H-tetrazol-2-yl)methyl]piperidine]
inhibition at 0.1 µM [1]: 90% | inhibition at 0.1 µM [2]: 97% | inhibition in vivo at 30 mg/kg [4]: 2.4% | inhibition at 0.1 µM [3]: 81%

Clc1ccc2cc([C@@H]([C@H]3CCCNC3)n3ncnn3)ccc2c1 [Example 70, (3S)-3-[(R)-(6-chloronaphthalen-2-yl)(2H-tetrazol-2-yl)methyl]piperidine]
inhibition at 0.1 µM [1]: 14% | inhibition at 0.1 µM [2]: 95% | inhibition at 0.1 µM [3]: 3%

Fc1ccc2cc([C@@H]([C@H]3CCCNC3)n3ncnn3)ccc2c1 [Example 72, (3S)-3-[(R)-(6-fluoronaphthalen-2-yl)(2H-tetrazol-2-yl)methyl]piperidine]
inhibition at 0.1 µM [1]: 6% | inhibition at 0.1 µM [2]: 86% | inhibition in vivo at 30 mg/kg [4]: 46.7% | inhibition at 0.1 µM [3]: 2%

c1ccc(-c2nnn([C@H](c3ccc4ccccc4c3)[C@H]3CCCNC3)n2)cc1 [Example 75, (3S)-3-[(S)-naphthalen-2-yl-(5-phenyl-tetrazol-2-yl)methyl]piperidine]
inhibition at 0.1 µM [1]: -1% | inhibition at 0.1 µM [2]: 86% | inhibition at 0.1 µM [3]: 41%

c1ccc2cc([C@H]([C@H]3CCCNC3)n3nc4ccccc4n3)ccc2c1 [Example 80, 2-{(S)-naphthalen-2-yl[(3S)-piperidin-3-yl]methyl}-2H-benzotriazole]
inhibition at 0.1 µM [1]: 55% | inhibition at 0.1 µM [2]: 59% | inhibition at 0.1 µM [3]: 84%

Fc1ccc2cc([C@H]([C@@H]3CCCNC3)n3ncnn3)ccc2c1 [Example 84, (3R)-3-[(S)-(6-fluoronaphthalen-2-yl)(2H-tetrazol-2-yl)methyl]piperidine]
inhibition at 0.1 µM [1]: 5% | inhibition at 0.1 µM [2]: 44% | inhibition at 0.1 µM [3]: -4%

Cc1ccc2cc([C@@H]([C@H]3CCCNC3)n3ncnn3)ccc2c1 [Example 86, (3S)-3-[(R)-(6-methylnaphthalen-2-yl)(2H-tetrazol-2-yl)methyl]piperidine]
inhibition at 0.1 µM [1]: -1% | inhibition at 0.1 µM [2]: 93% | inhibition in vivo at 30 mg/kg [4]: 13.4% | inhibition at 0.1 µM [3]: 35%

c1ccc2cc([C@H]([C@H]3CCCNC3)n3cncn3)ccc2c1 [Example 90, (3S)-3-[(S)-naphthalen-2-yl(1H-1,2,4-triazol-1-yl)methyl]piperidine]
inhibition at 0.1 µM [1]: 39% | inhibition at 0.1 µM [2]: 87% | inhibition at 0.1 µM [3]: 44%
